Results published in the supplement of paper PMC10307832.

Columns and labels:
Assay in all cases: relative viability (nuclei count vs DMSO), 5 days (fraction); higher = more cells survive
[1] = compound: C1COCCN1CC2=CC(=O)C(=CO2)OCCCCCSC3=C4C=CC(=CC4=NC=C3)C(F)(F)F [EHT 1864] + Cc1nc(NC(=O)N2CCC[C@H]2C(N)=O)sc1-c1ccnc(C(C)(C)C(F)(F)F)c1 [Alpelisib] (partner 2 µM)
In short: (§1)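 Relative viability is defined as nuclei in treated wells over nuclei in vehicle wells. Duplicate plates were run and medians reported. Lung cancer cell lines in 1536-well plates were dosed by pin tool one day after seeding, with one drug or with a fixed anchor-drug dose plus five library-drug doses (not always all listed) in √10 steps, and nuclei were counted after 5 days.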

[2] = compound: C1COCCN1CC2=CC(=O)C(=CO2)OCCCCCSC3=C4C=CC(=CC4=NC=C3)C(F)(F)F [EHT 1864] + Nc1nc2[nH]cc(CCc3ccc(C(=O)N[C@@H](CCC(=O)O)C(=O)O)cc3)c2c(=O)[nH]1 [Pemetrexed] (partner 0.2 µM)
In short: as §1

[3] = compound: C1COCCN1CC2=CC(=O)C(=CO2)OCCCCCSC3=C4C=CC(=CC4=NC=C3)C(F)(F)F [EHT 1864] + O=C(c1cc(Cc2n[nH]c(=O)c3ccccc23)ccc1F)N1CCN(C(=O)C2CC2)CC1 [Olaparib] (partner 8 µM)
In short: as §1

[4] = compound: C1COCCN1CC2=CC(=O)C(=CO2)OCCCCCSC3=C4C=CC(=CC4=NC=C3)C(F)(F)F [EHT 1864] + COc1cc2c(Oc3ccc(NC(=O)C4(C(=O)Nc5ccc(F)cc5)CC4)cc3F)ccnc2cc1OCCCN1CCOCC1 [Foretinib] (partner 0.25 µM)
In short: as §1

Row | Cell Line | relative viability ([1]; first compound 0.04 µM) | relative viability ([1]; first compound 0.1265 µM) | relative viability ([1]; first compound 0.4 µM) | relative viability ([1]; first compound 1.265 µM) | relative viability ([1]; first compound 4 µM) | relative viability ([2]; first compound 0.04 µM) | relative viability ([2]; first compound 0.1265 µM) | relative viability ([2]; first compound 0.4 µM) | relative viability ([2]; first compound 1.265 µM) | relative viability ([2]; first compound 4 µM) | relative viability ([3]; first compound 0.04 µM) | relative viability ([3]; first compound 0.1265 µM) | relative viability ([3]; first compound 0.4 µM) | relative viability ([3]; first compound 1.265 µM) | relative viability ([3]; first compound 4 µM) | relative viability ([4]; first compound 0.04 µM) | relative viability ([4]; first compound 0.4 µM) | relative viability ([4]; first compound 1.265 µM) | relative viability ([4]; first compound 4 µM) | relative viability ([4]; first compound 0.1265 µM)
1 | NCI-H2347 | 1.02 | 0.868 | 0.989 | 1.03 | 1.2 | 0.402 | 0.403 | 0.459 | 0.465 | 0.419 | 0.624 | 0.452 | 0.53 | 0.541 | 0.402 | 0.974 | 0.862 | 0.363 | 0.809 | 
2 | NCI-H1975 | 0.628 | 0.614 | 0.6 | 0.618 | 0.572 | 0.271 | 0.28 | 0.274 | 0.291 | 0.285 | 0.812 | 0.828 | 0.781 | 0.791 | 0.719 | 0.933 | 0.883 |  | 0.876 | 0.98
3 | UMC-11 | 0.887 | 1.01 | 0.976 | 0.962 | 1.02 | 0.763 | 0.706 | 0.843 | 0.764 | 0.888 | 0.379 | 0.383 | 0.426 | 0.383 | 0.356 | 0.935 |  | 1.07 | 1.11 | 0.962
4 | A-427 | 1.15 | 1.08 | 1.04 | 1.11 | 1.13 | 0.979 | 1.01 | 0.952 | 0.931 | 0.935 | 0.768 | 0.734 | 0.778 | 0.678 | 0.713 | 1.03 | 0.986 | 1.05 | 0.968 | 0.942
5 | LCLC-97TM1 | 0.253 |  | 0.22 | 0.195 | 0.198 | 0.205 | 0.15 | 0.169 | 0.185 | 0.15 | 0.347 | 0.346 | 0.328 | 0.326 | 0.444 | 0.848 | 0.948 | 0.939 | 0.949 | 0.842
6 | HCC-15 | 0.902 | 0.797 | 0.903 | 0.823 | 0.842 | 0.224 |  | 0.24 | 0.226 | 0.218 | 0.717 |  | 0.678 | 0.685 | 0.706 | 0.976 | 0.994 | 0.882 | 1.01 | 
7 | NCI-H647 | 1.21 | 1.04 | 1.26 | 0.977 | 1.18 | 0.203 | 0.13 | 0.164 | 0.157 | 0.177 | 0.493 | 0.503 | 0.539 | 0.312 | 0.613 | 1.19 | 1.37 | 1.27 | 1.26 | 0.977
8 | SW 1573 | 0.772 | 0.896 | 0.737 | 0.608 | 0.719 | 0.737 |  | 0.78 | 0.869 | 0.775 | 0.499 | 0.515 | 0.451 | 0.472 | 0.423 | 0.805 | 0.816 | 0.746 | 0.896 | 0.722
9 | NCI-H1651 | 0.917 | 0.876 | 0.949 | 0.967 | 0.878 | 0.529 | 0.662 | 0.565 | 0.553 | 0.55 | 0.165 | 0.184 | 0.177 | 0.174 | 0.191 | 0.836 | 0.845 | 0.691 | 0.827 | 0.757
10 | NCI-H2023 | 0.513 | 0.597 | 0.564 | 0.694 | 0.546 | 0.232 | 0.258 | 0.166 | 0.201 | 0.197 | 0.403 | 0.525 | 0.411 | 0.48 | 0.461 | 0.787 | 0.957 | 0.876 | 0.778 | 0.855
11 | COR-L 105 | 0.906 | 1.06 | 1.03 | 0.969 | 0.841 | 1.03 | 1.06 | 0.966 | 1.01 | 0.984 | 0.792 | 0.692 | 0.777 | 0.648 | 0.624 | 0.959 | 1.25 | 1.19 | 0.917 | 1.02
12 | NCI-H1734 | 0.741 | 0.629 | 0.627 | 0.609 | 0.64 | 0.45 | 0.385 | 0.463 | 0.394 | 0.432 | 0.71 | 0.64 | 0.619 | 0.679 | 0.635 | 0.911 | 0.706 | 0.961 | 0.826 | 
13 | NCI-H3122 | 0.869 | 0.751 | 0.774 | 0.732 | 0.766 | 0.189 | 0.179 | 0.206 | 0.202 | 0.185 | 0.556 | 0.58 | 0.627 | 0.596 | 0.612 | 0.938 | 0.961 | 0.982 | 0.885 | 0.983
14 | CAL-12T | 1.23 | 1.14 | 1.08 | 1.25 | 1.05 | 1.08 | 1.12 | 1.09 | 1.18 | 0.964 | 0.702 | 0.642 | 0.721 | 0.706 | 0.611 | 1 | 1 | 0.852 | 0.908 | 1.05
15 | HCC-78 | 0.29 | 0.31 | 0.328 | 0.367 | 0.491 | 0.868 | 0.866 | 0.823 | 0.889 | 0.937 | 0.781 | 0.887 | 0.773 | 0.868 | 0.92 | 0.578 | 0.538 | 0.606 | 0.633 | 0.474
16 | NCI-H2085 | 0.998 | 0.875 | 0.9 | 0.982 | 0.869 | 0.908 | 0.646 | 0.969 | 0.967 | 0.882 | 0.783 | 0.762 | 0.754 | 0.732 | 0.713 | 1.13 | 0.9 | 0.92 | 0.89 | 
